Source: patent US11186564B2, “Dual NAV1.2/5HT2a inhibitors for treating CNS disorders” (Sunovion Pharmaceuticals Inc., priority 2016, dated 2021)

What was measured:
[1] = target: T1, recombinant human serotonin receptor 5-HT2A (Homo sapiens, UniProt P28223); test: 5-HT2A antagonist Ca2+ assay in CHO-K1 cells (method A aequorin luminescence / method B FLIPR fluorescence); format: cell-based; conditions: antagonist mode vs EC80 of reference agonist, method A or B, read-out: 5HT2A IC50
T1 construct: expressed in transfected cells; method B: loaded with Ca2+ dye
Procedure, shortened: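 IC50 was obtained by nonlinear regression of percent inhibition of the EC80 agonist Ca2+ response in CHO-K1 cells stably expressing human 5-HT2A. The readout was aequorin luminescence with agonist injected 15 min after compound (A), or Ca2+-dye fluorescence on FLIPR with serotonin as agonist (B).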

[2] = target: human sodium channel NaV1.2 (Homo sapiens, UniProt Q99250); test: NaV1.2 inhibition, automated patch-clamp (Q-Patch HTX), slow inactivated state (state C); format: cell-based; conditions: hNaV1.2 CHO cells, slow inactivated state; for inhibition at 10 µM: 10 μM compound, read-out: NaV1.2 (% inh), 10 μM; for IC50: read-out: NaV1.2 IC50; for inhibition at 1 µM: 1 μM compound, read-out: NaV1.2 (% inh), 1 μM
Procedure, shortened: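 IC50 comes from a least-squares fit of percent inhibition, relative to vehicle, of current in the slow-inactivated state. That state is reached by a 10 s prepulse to −50 mV, then 15 ms at −90 mV, then a 5 ms test pulse to 0 mV. Human NaV1.2 in stable CHO K-1 cells, held at −100 mV, automated patch clamp.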

Chain of human sodium channel NaV1.2 (Q99250 whole entry): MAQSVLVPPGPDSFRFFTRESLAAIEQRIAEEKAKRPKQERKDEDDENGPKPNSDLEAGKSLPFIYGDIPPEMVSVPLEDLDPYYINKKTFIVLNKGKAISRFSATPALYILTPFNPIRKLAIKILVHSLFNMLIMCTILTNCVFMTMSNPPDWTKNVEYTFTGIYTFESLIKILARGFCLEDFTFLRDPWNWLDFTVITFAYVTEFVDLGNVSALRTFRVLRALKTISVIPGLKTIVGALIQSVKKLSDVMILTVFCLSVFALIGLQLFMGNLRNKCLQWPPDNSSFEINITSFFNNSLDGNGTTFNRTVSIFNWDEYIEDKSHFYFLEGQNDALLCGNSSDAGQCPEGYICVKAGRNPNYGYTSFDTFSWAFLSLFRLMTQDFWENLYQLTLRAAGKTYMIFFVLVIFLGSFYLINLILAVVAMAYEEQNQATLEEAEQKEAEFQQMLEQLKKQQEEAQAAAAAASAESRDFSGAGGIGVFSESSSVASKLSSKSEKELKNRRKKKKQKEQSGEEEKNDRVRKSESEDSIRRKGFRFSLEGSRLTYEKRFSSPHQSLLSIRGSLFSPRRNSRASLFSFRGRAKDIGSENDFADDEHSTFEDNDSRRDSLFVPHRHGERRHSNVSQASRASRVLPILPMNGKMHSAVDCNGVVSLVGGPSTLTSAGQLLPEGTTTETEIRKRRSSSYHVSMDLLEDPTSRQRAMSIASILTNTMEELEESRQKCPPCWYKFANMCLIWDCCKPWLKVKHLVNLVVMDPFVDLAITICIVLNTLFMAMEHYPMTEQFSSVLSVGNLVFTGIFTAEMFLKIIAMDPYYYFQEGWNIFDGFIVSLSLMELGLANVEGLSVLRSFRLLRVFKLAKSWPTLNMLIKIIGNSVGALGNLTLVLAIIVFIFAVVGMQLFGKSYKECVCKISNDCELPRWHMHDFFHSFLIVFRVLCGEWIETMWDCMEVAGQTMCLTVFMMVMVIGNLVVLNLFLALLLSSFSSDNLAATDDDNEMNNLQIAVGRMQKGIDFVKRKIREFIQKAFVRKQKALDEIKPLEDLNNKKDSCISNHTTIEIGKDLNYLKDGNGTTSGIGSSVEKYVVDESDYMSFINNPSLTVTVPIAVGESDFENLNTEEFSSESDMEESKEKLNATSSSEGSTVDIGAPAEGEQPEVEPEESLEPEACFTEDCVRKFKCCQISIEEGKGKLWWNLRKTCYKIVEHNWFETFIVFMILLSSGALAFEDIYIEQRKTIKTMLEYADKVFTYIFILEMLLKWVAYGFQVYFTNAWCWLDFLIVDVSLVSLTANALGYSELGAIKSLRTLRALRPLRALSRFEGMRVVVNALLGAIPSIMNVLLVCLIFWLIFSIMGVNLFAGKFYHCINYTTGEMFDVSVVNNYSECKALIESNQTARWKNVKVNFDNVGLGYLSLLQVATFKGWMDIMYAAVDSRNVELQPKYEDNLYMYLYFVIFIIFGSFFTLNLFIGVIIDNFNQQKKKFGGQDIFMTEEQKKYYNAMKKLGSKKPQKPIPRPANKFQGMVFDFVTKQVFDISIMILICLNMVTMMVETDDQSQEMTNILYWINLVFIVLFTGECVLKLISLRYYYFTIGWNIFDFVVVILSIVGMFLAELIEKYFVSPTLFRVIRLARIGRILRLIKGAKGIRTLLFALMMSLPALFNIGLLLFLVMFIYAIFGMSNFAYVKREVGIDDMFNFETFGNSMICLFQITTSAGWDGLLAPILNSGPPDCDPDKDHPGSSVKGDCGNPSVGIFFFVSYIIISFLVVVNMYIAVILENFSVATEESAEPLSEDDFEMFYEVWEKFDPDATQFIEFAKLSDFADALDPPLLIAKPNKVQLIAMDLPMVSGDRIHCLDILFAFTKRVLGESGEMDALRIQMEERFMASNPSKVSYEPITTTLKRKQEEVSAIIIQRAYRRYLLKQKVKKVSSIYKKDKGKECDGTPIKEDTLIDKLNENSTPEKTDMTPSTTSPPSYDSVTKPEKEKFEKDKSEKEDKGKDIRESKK
T1 sequence (P28223 whole entry): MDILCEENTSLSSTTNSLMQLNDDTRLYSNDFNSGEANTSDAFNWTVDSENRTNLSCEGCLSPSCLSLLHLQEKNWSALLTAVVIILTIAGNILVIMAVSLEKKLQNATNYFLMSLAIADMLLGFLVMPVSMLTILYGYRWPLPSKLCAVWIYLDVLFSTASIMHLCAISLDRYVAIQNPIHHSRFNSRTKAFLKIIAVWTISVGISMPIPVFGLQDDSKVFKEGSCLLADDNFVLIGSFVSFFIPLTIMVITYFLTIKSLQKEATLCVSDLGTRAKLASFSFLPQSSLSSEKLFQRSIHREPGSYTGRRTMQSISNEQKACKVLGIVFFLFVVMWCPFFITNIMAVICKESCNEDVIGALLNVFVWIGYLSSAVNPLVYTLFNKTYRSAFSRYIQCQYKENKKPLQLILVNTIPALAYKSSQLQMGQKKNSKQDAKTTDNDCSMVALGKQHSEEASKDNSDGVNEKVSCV

Row | SMILES | IC50 [1] [nM] | inhibition at 10 µM [2] [%] | IC50 [2] [nM] | inhibition at 1 µM [2] [%]
1 | N#Cc1cccc(OC2CCN(CCN3CCc4ccccc4C3=O)CC2)c1 [Example 197, 3-((1-(2-(1-oxo-3,4-dihydroisoquinolin-2(1H)-yl)ethyl)piperidin-4-yl)oxy)benzonitrile] | 1250 | 47 | – | –
2 | O=C1c2ccccc2CCN1CCN1CCC(Oc2ccc(F)cc2)CC1 [Example 200, 2-(2-(4-(4-fluorophenoxy)piperidin-1-yl)ethyl)-3,4-dihydroisoquinolin-1(2H)-one] | 10 | 73 | – | –
3 | CN(C)c1ccc(OC2CCN(CCN3CCc4ccccc4C3=O)CC2)cc1 [Example 201, 2-(2-(4-(4-(dimethylamino)phenoxy)piperidin-1-yl)ethyl)-3,4-dihydroisoquinolin-1(2H)-one] | 2170 | 39 | – | –
4 | COc1ccc(OC2CCN(CCN3CCc4ccccc4C3=O)CC2)cc1 [Example 202, 2-(2-(4-(4-methoxyphenoxy)piperidin-1-yl)ethyl)-3,4-dihydroisoquinolin-1(2H)-one] | 174 | 62 | – | –
5 | O=C1c2ccncc2CCN1CCN1CCC(Oc2ccc(F)cc2)CC1 [Example 203, 2-(2-(4-(4-fluorophenoxy)piperidin-1-yl)ethyl)-3,4-dihydro-2,6-naphthyridin-1(2H)-one] | 70 | 14 | – | –
6 | COc1cccc(OC2CCN(CCN3CCCc4ccccc4C3=O)CC2)c1 [Example 205, 2-(2-(4-(3-methoxyphenoxy)piperidin-1-yl)ethyl)-2,3,4,5-tetrahydro-1H-benzo[c]azepin-1-one] | 450 | 76 | – | –
7 | COCc1cccc(OC2CCN(CCN3CCCc4ccccc4C3=O)CC2)c1 [Example 206, 2-(2-(4-(3-(methoxymethyl)phenoxy)piperidin-1-yl)ethyl)-2,3,4,5-tetrahydro-1H-benzo[c]azepin-1-one] | > 1300 | 46 | – | –
8 | O=C1c2cccnc2CCN1CCN1CCC(Oc2ccc(F)cc2)CC1 [Example 207, 6-(2-(4-(4-fluorophenoxy)piperidin-1-yl)ethyl)-7,8-dihydro-1,6-naphthyridin-5(6H)-one] | 30 | 38 | – | –
9 | O=C1c2ccccc2CCCN1CCN1CCC(Oc2ccc(F)cc2)CC1 [Example 208, 2-(2-(4-(4-fluorophenoxy)piperidin-1-yl)ethyl)-2,3,4,5-tetrahydro-1H-benzo[c]azepin-1-one] | 10 | – | 1210 | –
10 | O=C1c2cc(Cl)ccc2CCCN1CCN1CCC(Oc2ccc(F)cc2)CC1 [Example 209, 8-chloro-2-(2-(4-(4-fluorophenoxy)piperidin-1-yl)ethyl)-2,3,4,5-tetrahydro-1H-benzo[c]azepin-1-one] | 20 | – | 270 | –
11 | CN(C)Cc1ccc2c(c1)C(=O)N(CCN1CCC(Oc3ccc(F)cc3)CC1)CCC2 [Example 211, 8-((dimethylamino)methyl)-2-(2-(4-(4-fluorophenoxy)piperidin-1-yl)ethyl)-2,3,4,5-tetrahydro-1H-benzo[c]azepin-1-one] | 270 | 50 | – | –
12 | COc1ccc2c(c1)CCCN(CCN1CCC(Oc3ccc(F)cc3)CC1)C2=O [Example 212, 2-(2-(4-(4-fluorophenoxy)piperidin-1-yl)ethyl)-7-methoxy-2,3,4,5-tetrahydro-1H-benzo[c]azepin-1-one] | 10 | 48 | – | –
13 | O=C1c2ccc(Br)cc2CCCN1CCN1CCC(Oc2ccc(F)cc2)CC1 [Example 213, 7-bromo-2-(2-(4-(4-fluorophenoxy)piperidin-1-yl)ethyl)-2,3,4,5-tetrahydro-1H-benzo[c]azepin-1-one] | 80 | – | 180 | –
14 | O=C(CN1CCC(Oc2ccc(F)cc2)CC1)C1CCc2ccccc21 (stereo not drawn) [Example 215, 1-(2,3-dihydro-1H-inden-1-yl)-2-(4-(4-fluorophenoxy)piperidin-1-yl)ethan-1-one] | 190 | – | – | 25
15 | O=C(CN1CCC(Oc2ccccc2)CC1)c1ccccc1 [Example 216, 2-(4-phenoxypiperidin-1-yl)-1-phenylethan-1-one] | 150 | – | – | 34
16 | c1ccc(OC2CCN(CCO[C@H]3CCc4ccccc43)CC2)cc1 [Example 217, (S)-1-(2-((2,3-dihydro-1H-inden-1-yl)oxy)ethyl)-4-phenoxypiperidine] | 280 | – | – | 58
17 | c1ccc(OC2CCN(CCO[C@@H]3CCc4ccccc43)CC2)cc1 [Example 218, (R)-1-(2-((2,3-dihydro-1H-inden-1-yl)oxy)ethyl)-4-phenoxypiperidine] | 440 | 72 | – | –
18 | O=C1Cc2ccccc2N1CCCN1CCC(Oc2ccc(F)cc2)CC1 [Example 219, 1-(3-(4-(4-fluorophenoxy)piperidin-1-yl)propyl)indolin-2-one] | 10 | 54 | – | –

Row | SMILES | IC50 [1] [nM] | inhibition at 10 µM [2] [%] | IC50 [2] [nM] | inhibition at 1 µM [2] [%]
19 | O=C1c2ccccc2CCN1CCCN1CCC(Oc2cccnc2)CC1 [Example 220, 2-(3-(4-(pyridin-3-yloxy)piperidin-1-yl)propyl)-3,4-dihydroisoquinolin-1(2H)-one] | 490 | 12 | – | –
20 | COc1cccc(OC2CCN(CCCN3CCc4ccccc4C3=O)CC2)c1 [Example 221, 2-(3-(4-(3-methoxyphenoxy)piperidin-1-yl)propyl)-3,4-dihydroisoquinolin-1(2H)-one] | 980 | – | 1000 | –
21 | O=C1c2ccccc2CCN1CCCN1CCC(Oc2ccc(F)cc2)CC1 [Example 222, 2-(3-(4-(4-fluorophenoxy)piperidin-1-yl)propyl)-3,4-dihydroisoquinolin-1(2H)-one] | 60 | – | 1300 | –
22 | O=C1c2ccccc2CCCN1CCCN1CCC(Oc2ccc(F)cc2)CC1 [Example 223, 2-(3-(4-(4-fluorophenoxy)piperidin-1-yl)propyl)-2,3,4,5-tetrahydro-1H-benzo[c]azepin-1-one] | 30 | 68 | – | –
23 | COc1cccc(OCCN2CCC(Oc3ccccc3)CC2)c1 [Example 224, 1-(2-(3-methoxyphenoxy)ethyl)-4-phenoxypiperidine] | 170 | 81 | – | –
24 | COc1cccc(CCCN2CCC(Oc3ccccc3)CC2)c1 [Example 225, 1-(3-(3-methoxyphenyl)propyl)-4-phenoxypiperidine] | 250 | 88 | – | –
25 | O[C@H](CCN1CCC(Oc2ccccc2)CC1)c1ccccc1 [Example 227, (R)-3-(4-phenoxypiperidin-1-yl)-1-phenylpropan-1-ol] | 140 | 53 | – | –
26 | O[C@@H](CCN1CCC(Oc2ccccc2)CC1)c1ccccc1 [Example 228, (S)-3-(4-phenoxypiperidin-1-yl)-1-phenylpropan-1-ol] | 140 | 52 | – | –
27 | CO[C@H](CCN1CCC(Oc2ccccc2)CC1)c1ccccc1 [Example 229, (R)-1-(3-methoxy-3-phenylpropyl)-4-phenoxypiperidine] | 30 | – | 1080 | –
28 | CO[C@@H](CCN1CCC(Oc2ccccc2)CC1)c1ccccc1 [Example 230, (S)-1-(3-methoxy-3-phenylpropyl)-4-phenoxypiperidine] | 390 | 87 | – | –
29 | c1ccc(OC2CCN(CCOc3ccc4cccnc4c3)CC2)cc1 [Example 232, 7-(2-(4-phenoxypiperidin-1-yl)ethoxy)quinoline] | 220 | 76 | – | –
30 | OC(CO[C@H]1CCc2ccccc21)CN1CCC(Oc2ccc(F)cc2)CC1 (stereo partly drawn) [Example 235, 1-(((S)-2,3-dihydro-1H-inden-1-yl)oxy)-3-(4-(4-fluorophenoxy)piperidin-1-yl)propan-2-ol] | 190 | – | 340 | –
31 | OC(CO[C@@H]1CCc2ccccc21)CN1CCC(Oc2ccc(F)cc2)CC1 (stereo partly drawn) [Example 236, 1-(((R)-2,3-dihydro-1H-inden-1-yl)oxy)-3-(4-(4-fluorophenoxy)piperidin-1-yl)propan-2-ol] | 350 | – | 550 | –
32 | O[C@@H](CO[C@H]1CCc2ccccc21)CN1CCC(Oc2ccc(F)cc2)CC1 [Example 238, (R)-1-(((S)-2,3-dihydro-1H-inden-1-yl)oxy)-3-(4-(4-fluorophenoxy)piperidin-1-yl)propan-2-ol] | 240 | – | – | 47
33 | OC(COC1CCCCc2ccccc21)CN1CCC(Oc2ccccc2)CC1 (stereo not drawn) [Example 240, 1-(4-phenoxypiperidin-1-yl)-3-((6,7,8,9-tetrahydro-5H-benzo[7]annulen-5-yl)oxy)propan-2-ol] | 110 | – | 960 | –
34 | COc1ccc2c(c1)C(CN1CCC(OCc3ccccc3C)CC1)CC2 (stereo not drawn) [Example 242, 1-((6-methoxy-2,3-dihydro-1H-inden-1-yl)methyl)-4-((2-methylbenzyl)oxy)piperidine] | 90 | – | 230 | –
35 | COc1ccc2c(c1)C(CN1CCC(OCc3ccccc3F)CC1)CC2 (stereo not drawn) [Example 243, 4-((2-fluorobenzyl)oxy)-1-((6-methoxy-2,3-dihydro-1H-inden-1-yl)methyl)piperidine] | 360 | – | 100 | –
36 | COc1ccc2c(c1)C(CN1CCC(OCc3ccccc3Cl)CC1)CC2 (stereo not drawn) [Example 244, 4-((2-chlorobenzyl)oxy)-1-((6-methoxy-2,3-dihydro-1H-inden-1-yl)methyl)piperidine] | 60 | – | 160 | –
